Test results taken from US8835478B2, “Treatment for cancer” (Pitney Pharmaceuticals PTY Limited, priority 2005, dated 2014).

How the values were obtained:
SKOV-3 cells = experiment: Sulforhodamine B (SRB) cell proliferation assay, 5-day treatment, SKOV-3; assay type: cell-based, human; conditions: 5 days
Description: (§1) Human ovarian carcinoma cell lines OVCAR-3, SKOV-3, 1A9 and 1A9PTX22 were used. OVCAR-3 and SKOV-3 cells were obtained from the American Type Culture Collection (ATCC) and maintained on RPMI medium and McCoy5A medium respectively according to ATCC instructions. 1A9 is a clone of the human ovarian carcinoma cell line, A2780 (Sackett et al., 1997). 1A9PTX22 is a paclitaxel resistant subclone of 1A9 cells, isolated as an individual clone in a single step selection by exposing 1A9 cells to 5 ng/ml paclitaxel in the presence of 5 μg/ml verapamil, a Pgp antagonist (Giannakakou et al., 1997). Cells were maintained in 15 ng/ml paclitaxel and 5 μg/ml verapamil continuously.
(§2) Sulforhodamine B (SRB) colorimetric assay was used to study the effect of albendazole, paclitaxel or their combination on tumour cell cytotoxicity in vitro.
(§3) Cells were harvested from exponential phase cultures by trypsinization, counted and plated in 96-well plates. Optimal seeding densities for each cell line were determined to ensure exponential growth during a 5-day assay. Seeding densities were 5000, 1000, 400 and 3500 cells per well for OVCAR-3, SKOV-3, 1A9 and 1A9PTX22 cells, respectively. […] The plates were left to dry at room temperature and bound protein stain was solubilized with 100 μl 10 mM un-buffered Tris base [tris(hydroxymethyl)aminomethane)] before reading the optical density (OD) at 570 nm. […]

1A9 cells = experiment: Sulforhodamine B (SRB) cell proliferation assay, 5-day treatment, 1A9; assay type: cell-based; conditions: Homo sapiens
Description: as §1, §2, §3

1A9PTX22 cells [1] = experiment: Sulforhodamine B (SRB) cell proliferation assay, 5-day treatment, 1A9PTX22 (paclitaxel resistant); assay type: cell-based, human; conditions: for effect on cell proliferation: 1A9PTX22
Description: as §1, §2
Cells were harvested from exponential phase cultures by trypsinization, counted and plated in 96-well plates. Optimal seeding densities for each cell line were determined to ensure exponential growth during a 5-day assay. Seeding densities were 5000, 1000, 400 and 3500 cells per well for OVCAR-3, SKOV-3, 1A9 and 1A9PTX22 cells, respectively. Cells plated in 96-well tissue culture plates were treated with 100 μl cell culture medium containing various concentrations of albendazole, paclitaxel or a combination of the two. […] Treatment media were replaced on alternate days. At the end of the treatment period (5 days), wells were assayed for cellular protein content. The SRB assay was performed according to the method described by Skehan et al. (1990) and Papazisis at al. (1997), with minor modifications. The culture medium was aspirated prior to fixation of the cells by the addition of 100 μl 10% cold trichloroacetic acid. After an hour incubation at 4° C., cells were washed five times with water. The cells were then stained with 200 μl 0.4% SRB dissolved in 1% acetic acid for at least 15 min and subsequently washed four times with 1% acetic acid to remove unbound stain. The plates were left to dry at room temperature and bound protein stain was solubilized with 100 μl 10 mM un-buffered Tris base [tris(hydroxymethyl)aminomethane)] before reading the optical density (OD) at 570 nm.
For each of the four cell lines used in this study, sensitivity of each line was initially tested by incubating cells with various concentrations of albendazole or paclitaxel for 5 days. The SRB assay was performed at the end of the treatment period to determine cell response to drug treatment.

1A9PTX22 cells [2] = experiment: SRB assay, 72 hours, cross resistance of 1A9PTX22 compared to parent line 1A9; assay type: cell-based, human; conditions: for concentration at which partial resistance of 1A9PTX22 is apparent: 1A9PTX22 vs 1A9, p<0.001; for degree of sensitivity of 1A9PTX22 cells compared to parent cell line 1A9: various concentrations
Description: Cells were harvested from exponential phase cultures by trypsinization, counted and plated in 96-well plates. Optimal seeding densities for each cell line were determined to ensure exponential growth during a 5-day assay. Seeding densities were 5000, 1000, 400 and 3500 cells per well for OVCAR-3, SKOV-3, 1A9 and 1A9PTX22 cells, respectively. Cells plated in 96-well tissue culture plates were treated with 100 μl cell culture medium containing various concentrations of albendazole, paclitaxel or a combination of the two. Both albendazole and paclitaxel were originally made up in absolute ethanol and subsequently diluted with cell culture medium to give the desired drug concentrations with a final ethanol concentration of 1%. Treatment media were replaced on alternate days. At the end of the treatment period (5 days), wells were assayed for cellular protein content. The SRB assay was performed according to the method described by Skehan et al. (1990) and Papazisis at al. (1997), with minor modifications. The culture medium was aspirated prior to fixation of the cells by the addition of 100 μl 10% cold trichloroacetic acid. After an hour incubation at 4° C., cells were washed five times with water. The cells were then stained with 200 μl 0.4% SRB dissolved in 1% acetic acid for at least 15 min and subsequently washed four times with 1% acetic acid to remove unbound stain. The plates were left to dry at room temperature and bound protein stain was solubilized with 100 μl 10 mM un-buffered Tris base [tris(hydroxymethyl)aminomethane)] before reading the optical density (OD) at 570 nm.
1A9 and 1A9PTX22 cells plated in 96-well tissue culture plates were treated with 100 μl cell culture medium containing various concentrations of vincristine and colchicine for 72 hours and SRB assays conducted as described above. As for paclitaxel (see Example 1), both vincristine and colchicine were originally made up in absolute ethanol and subsequently diluted with cell culture medium to give the desired drug concentrations with a final ethanol concentration of 1%. The results are illustrated in FIGS. 5A (vincristine) and 5B (colchicine). […] The partial resistance of 1A9PTX22 is apparent for vincristine at concentrations of 5 nM and above and for colchicine at 100 nM and above (p<0.001).

In the case of `CCCSc1ccc2nc(NC(=O)OC)[nH]c2c1` [albendazole], the “reduction in cell proliferation” value (SKOV-3 cells; 0.25 μM albendazole alone) is reported as 48.4%, the inhibition at 0.1 µM (1A9 cells; 1A9, 120 h, read-out: inhibition of proliferation) is reported as 11.8% and the “sensitivity of 1A9PTX22 compared to the parent line (1A9)” value (1A9PTX22 cells [1]; 1A9PTX22 vs 1A9, various concentrations, 5 days) is reported as “even more sensitive”. It also gave an inhibition at 1 µM (1A9PTX22 cells [1]; Homo sapiens, 1A9/ptx-22, 120 h, read-out: inhibitory effect on proliferation) of 53%.

For `CC[C@]1(O)C[C@H]2CN(CCc3c([nH]c4ccccc34)[C@@](C(=O)OC)(c3cc4c(cc3OC)N(C=O)[C@H]3[C@@](O)(C(=O)OC)[C@H](OC(C)=O)[C@]5(CC)C=CCN6CC[C@]43[C@@H]65)C2)C1` [vincristine], the “concentration at which partial resistance of 1A9PTX22 is apparent” value (1A9PTX22 cells [2]) was ≥ 5 nM and the “degree of sensitivity of 1A9PTX22 cells compared to parent cell line 1A9” value (1A9PTX22 cells [2]) was “significantly reduced”.

For `CC(=O)O[C@H]1C(=O)[C@@]2(C)[C@H]([C@H](OC(=O)c3ccccc3)[C@]3(O)C[C@H](OC(=O)[C@H](O)[C@@H](NC(=O)c4ccccc4)c4ccccc4)C(C)=C1C3(C)C)[C@]1(OC(C)=O)CO[C@@H]1C[C@@H]2O` [paclitaxel], the inhibition at 10 pM (SKOV-3 cells; Homo sapiens, SK-OV-3, 120 h, 0.01 nM paclitaxel alone) was 14.5%, the inhibition at 0.0001 µM (1A9 cells; 120 h, 1A9, 0.1 nM paclitaxel alone, 5 days) was 21.8% and the “effect on cell proliferation” value (1A9PTX22 cells [1]; 1.0 nM paclitaxel alone, 5 days) was “not affected”. For the same compound, the “effect on cell proliferation” value (1A9PTX22 cells [1]; 5.0 nM paclitaxel alone, 5 days) was “not affected” and the “increase in paclitaxel concentration required in paclitaxel-resistant cell lines for a response similar to paclitaxel-sensitive cells” value (1A9PTX22 cells [1]; paclitaxel alone, resistant vs sensitive cells) was “approximately 50 fold”.

For `COc1cc2c(c(OC)c1OC)-c1ccc(OC)c(=O)cc1[C@@H](NC(C)=O)CC2` [colchicine], the “concentration at which partial resistance of 1A9PTX22 is apparent” value (1A9PTX22 cells [2]) was ≥ 100 nM and the “degree of sensitivity of 1A9PTX22 cells compared to parent cell line 1A9” value (1A9PTX22 cells [2]) was “significantly reduced”.
